Target: T1, Mdm2/p53 binding (GST-Mdm2 / His-p53) (Homo sapiens, UniProt Q00987, L33E)
T1 construct: Mdm2 partial protein having Mdm2 amino acids at positions 25 to 108
Assay: Mdm2/p53 binding assay (HTRF, His-p53 and GST-Mdm2)
Details: His-p53 (aa 1-132) and GST-Mdm2 (aa 25-108, L33E) 6.25 nM each; 25°C, 1 hour; values given as ranges
Protocol: A protein dilution containing 6.25 nM each of His-p53 (fusion protein of a p53 partial protein having p53 amino acids at positions 1 to 132, with a histidine protein) and GST-Mdm2 (fusion protein of an Mdm2 partial protein having Mdm2 amino acids at positions 25 to 108 with leucine residue 33 substituted by glutamic acid, with glutathione transferase) proteins was prepared using a protein buffer solution (20 mM HEPES pH 7.4, 150 mM NaCl, 0.1% BSA). This protein dilution was added in an amount of 8 μl/well to a 384-well plate (384-well low volume NBC, Corning Inc., catalog No: 3676).
Next, a test compound was diluted with DMSO to produce a protein buffer solution containing 10% dilution, and this buffer solution was added in an amount of 4 μl/well to the plate.
Subsequently, a solution containing an XL665-labeled anti-His antibody (HTRF monoclonal anti-6HIS antibody labeled with XL665 (catalog No: 61HISXLB), Schering/Cisbio Bioassays) and a europium (Eu)-labeled anti-GST antibody (HTRF monoclonal anti-GST antibody labeled with europium cryptate, Schering/Cisbio Bioassays, catalog No: 61GSTKLB) at concentrations of 2.5 μg/ml and 0.325 μg/ml, respectively, was prepared using an antibody diluting buffer solution (20 mM HEPES pH 7.4, 150 mM NaCl, 0.1% BSA, 0.5 M KF). These dilutions were added in an amount of 8 μl/well (total reaction solution volume: 20 μl/well). Then the plate was incubated at 25° ° C. for 1 hour.
Time-resolved fluorescence at 620 and 665 nm was measured at an excitation wavelength of 320 nm using a plate reader (ARVOsx, PerkinElmer Co., Ltd. or PHERAstar, BMG LABTECH). Ratio (R) was calculated using the measured values (RFU 620 nm and RFU 665 nm) according to the following formula: […]
BI: measured value at 665 nm of reaction solution (only each buffer solution) nonsupplemented with each protein, the compound, and the antibodies
A and D: each measured value at 665 nm and 620 nm of reaction solution supplemented with only Eu-labeled anti-GST antibody solution
The R value calculated from the well supplemented with His-p53, GST-Mdm2, the test compound, and each antibody was defined as R (sample). The R value calculated from the well supplemented with His-p53, GST-Mdm2, and each antibody but without the test compound was defined as R (control). The R value calculated from the well supplemented with GST-Mdm2 the test compound, and each antibody but without His-p53 was defined as R (background). T/C was calculated from the formula shown below. An IC50 value for Mdm2/p53 binding was calculated by sigmoid fitting.

T1 sequence (Q00987 25-108 L33E): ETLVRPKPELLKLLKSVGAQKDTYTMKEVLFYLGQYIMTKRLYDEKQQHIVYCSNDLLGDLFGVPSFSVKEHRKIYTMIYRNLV

| SMILES | IC50 [µM] |
| --- | --- |
| CO[C@H]1C[C@@H](NC(=O)[C@@H]2NC3(CCC(C)(C)CC3)[C@@]3(C(=O)Nc4cc(Cl)ccc43)[C@H]2c2ccnc(Cl)c2)CO[C@@H]1CO [Example 59, (3′R, 4′R, 5′B)-6″-chloro-4′-(2-chloropyridin-4-yl)-N-[(3R,5S,6R)-6-(hydroxymethyl)-5-methoxytetrahydro-2H-pyran-3-yl]-4,4-dimethyl-2″-oxo-1″,2″-dihydrodispiro[cyclohexane-1,2′-pyrrolidine-3′,3″-indole]-5′-carboxamide] | 0.05 to 0.1 |
| COC[C@]1(O)CC[C@@H](NC(=O)[C@@H]2NC3(CCC(C)(C)CC3)[C@@]3(C(=O)Nc4cc(Cl)ccc43)[C@H]2c2ccnc(Cl)c2F)CC1 [Example 61, (3′R, 4′S,5′R)-6″-chloro-4′-(2-chloro-3-fluoropyridin-4-yl)-N-[cis-4-hydroxy-4-(methoxymethyl)cyclohexyl]-4,4-dimethyl-2″-oxo-1″,2″-dihydrodispiro[cyclohexane-1,2′-pyrrolidine-3′,3″-indole]-5′-carboxamide] | 0.05 to 0.1 |
| CC1(C)CCC2(CC1)N[C@@H](C(=O)N[C@@H]1CC[C@@H](c3ncon3)OC1)[C@H](c1cccc(Cl)c1F)[C@]21C(=O)Nc2nc(Cl)ccc21 [Example 62, (3′R, 4′S,5′R)-6″-chloro-4′-(3-chloro-2-fluorophenyl)-4,4-dimethyl-N-[(3R,6S)-6-(1,2,4-oxadiazol-3-yl)tetrahydro-2H-pyran-3-yl]-2″-oxo-1″,2″-dihydrodispiro[cyclohexane-1,2′-pyrrolidine-3′,3″-pyrrolo[2,3-b]pyridine]-5′-carboxamide] | 0.05 to 0.1 |
| CC1(C)CCC2(CC1)N[C@@H](C(=O)N[C@@H]1CC[C@@H](c3ncon3)OC1)[C@H](c1ccnc(Cl)c1)[C@]21C(=O)Nc2cc(Cl)ccc21 [Example 63, (3′R,4′R,5′R)-6″-chloro-4′-(2-chloropyridin-4-yl)-4,4-dimethyl-N-[(3R,6S)-6-(1,2,4-oxadiazol-3-yl)tetrahydro-2H-pyran-3-yl]-2″-oxo-1″,2″-dihydrodispiro[cyclohexane-1,2′-pyrrolidine-3′,3″-indole]-5′-carboxamide] | 0.05 to 0.1 |
| CC1(C)CCC2(CC1)N[C@@H](C(=O)N[C@@H]1CC[C@@H](c3ncon3)OC1)[C@H](c1ccnc(Cl)c1F)[C@]21C(=O)Nc2cc(Cl)ccc21 [Example 64, (3′R, 4′S,5′R)-6″-chloro-4′-(2-chloro-3-fluoropyridin-4-yl)-4,4-dimethyl-N-[(3R,6S)-6-(1,2,4-oxadiazol-3-yl)tetrahydro-2H-pyran-3-yl]-2″-oxo-1″,2″-dihydrodispiro[cyclohexane-1,2′-pyrrolidine-3′,3″-indole]-5′-carboxamide] | 0.05 to 0.1 |
| CC1(C)CCC2(CC1)N[C@@H](C(=O)N[C@@H]1CC[C@@H](c3n[nH]c(=O)o3)OC1)[C@H](c1ccnc(Cl)c1F)[C@]21C(=O)Nc2nc(Cl)ccc21 [Example 65, (3′R, 4′S,5′R)-6″-chloro-4′-(2-chloro-3-fluoropyridin-4-yl)-4,4-dimethyl-2″-oxo-N-[(3R,6S)-6-(5-oxo-4,5-dihydro-1,3,4-oxadiazol-2-yl)tetrahydro-2H-pyran-3-yl]-1″,2″-dihydrodispiro[cyclohexane-1,2′-pyrrolidine-3′,3″-pyrrolo[2,3-b]pyridine]-5′-carboxamide] | 0.001 to 0.05 |
| CC1(C)CCC2(CC1)N[C@@H](C(=O)N[C@@H]1CC[C@@H](c3ncon3)OC1)[C@H](c1ccnc(Cl)c1F)[C@]21C(=O)Nc2nc(Cl)ccc21 [Example 66, (3′R, 4′S,5′R)-6″-chloro-4′-(2-chloro-3-fluoropyridin-4-yl)-4,4-dimethyl-N-[(3R,6S)-6-(1,2,4-oxadiazol-3-yl)tetrahydro-2H-pyran-3-yl]-2″-oxo-1″,2″-dihydrodispiro[cyclohexane-1,2′-pyrrolidine-3′,3″-pyrrolo[2,3-b]pyridine]-5′-carboxamide] | 0.05 to 0.1 |

Source: US12545685B2 (Daiichi Sankyo Company, Limited, priority 2011, dated 2026)
